Paper PMC3666986 (Clinical Medicine Insights. Pediatrics, 2010)
Entries after “also recorded” stand apart in the source; their conditions may differ. Read-outs that look alike come from different tables or passages of the source.

Legend:
[1] = adults, ciclesonide via HFA-MDI with AeroChamber Plus; cited from earlier work
[2] = cited from earlier work
[3] = format: in vivo, human; conditions: for AUC: AUCτ, des-CIC in serum, Day 7, τ 24 h, mean ± SEM, N 29; for systemic accumulation: once daily administration of ciclesonide to children, with or without spacer; for time serum concentration detectable/observed after inhalation: present study, treatment not specified (discussion)
glucocorticoid receptor = conditions: receptor affinity of dexamethasone = 100; cited from earlier work
[4] = cited from earlier work; remark: listed apart in the source
[5] = Advair HFA; cited from earlier work
[6] = Safety and tolerability monitoring; format: in vivo, human
[7] = healthy subjects and patients with asthma; cited from earlier work
Pulmonary function tests = format: in vivo, human
[8] = des-CIC, Treatment A 160 μg with spacer / Treatment C 160 μg no spacer, ANOVA
[9] = des-CIC, ciclesonide 80 μg with spacer vs 160 μg without spacer
[10] = des-CIC, ciclesonide 160 μg with spacer vs 160 μg without spacer

## C[C@]12C=CC(=O)C=C1CC[C@@H]1[C@@H]2[C@@H](O)C[C@@]2(C)[C@H]1C[C@H]1O[C@@H](C3CCCCC3)O[C@]12C(=O)CO [des-CIC, desisobutyryl-ciclesonide]
[1]
  effect of spacer on PK: did not influence the PK
[2]
  oral bioavailability: less than 1%
[3]; des-CIC, 80 μg ciclesonide (Treatment B), LLOQ 0.01 μg/L
  time up to which serum concentrations were detectable: up to 6 h
[3]; des-CIC, 160 μg ciclesonide (Treatment A and Treatment C), LLOQ 0.01 μg/L
  time up to which serum concentration-time profile curves were obtained: up to 12 h
[3]; [8]
  AUCτ Ratio [% Ref]: 127 % Ref
  Cmax Ratio [% Ref]: 155 % Ref
[3]; [9]
  dose-normalized Cmax higher with spacer than without spacer: 63%
  dose-normalized systemic exposure (AUCτ) higher with spacer than without spacer: 26%
[3]; [10]
  dose-normalized Cmax higher with spacer than without spacer: 55%
  dose-normalized systemic exposure (AUCτ) higher with spacer than without spacer: 27%
[3]; human, serum, inhaled, 80 ug, Treatment B 80 μg CIC with spacer
  AUC: 0.316 ± 0.022 ng·h/mL
[3]; human, serum, inhaled, 160 ug, Treatment C 160 μg CIC no spacer
  AUC: 0.542 ± 0.042 ng·h/mL
[3]; human, serum, inhaled, tmax, des-CIC, similar for all treatments
  Tmax: 42 min
[3]
  systemic accumulation: does not lead to systemic accumulation
  time serum concentration detectable/observed after inhalation: up to 12 h
Glucocorticoid receptor
  relative glucocorticoid receptor affinity: 1200
[4]
  bound to plasma protein: About 99%

## CCC(=O)O[C@]1(C(=O)SCF)[C@H](C)C[C@H]2[C@@H]3C[C@H](F)C4=CC(=O)C=C[C@]4(C)[C@@]3(F)[C@@H](O)C[C@@]21C [fluticasone propionate]
[5]
  increase of AUC0–last with spacer: 406%
  increase of Cmax with spacer: 210%

## C[C@@H]1C[C@H]2[C@@H]3CCC4=CC(=O)C=C[C@]4(C)[C@@]3(F)[C@@H](O)C[C@]2(C)[C@@]1(O)C(=O)CO [dexamethasone]
Glucocorticoid receptor
  relative glucocorticoid receptor affinity: 100

## CC(C)C(=O)OCC(=O)[C@@]12O[C@H](C3CCCCC3)O[C@@H]1C[C@H]1[C@@H]3CCC4=CC(=O)C=C[C@]4(C)[C@H]3[C@@H](O)C[C@@]12C [ciclesonide]
[6]; assessed by investigator and sponsor
  relation of AEs to study medication: not related
[6]; ciclesonide 80 or 160 μg once daily, 7-day periods, with or without spacer
  tolerability: well tolerated
[6]; during the three treatment periods, 37 patients
  number of patients reporting AEs: 24
[6]; whole study
  clinically relevant abnormalities (laboratory values) / adverse drug reactions: No clinically relevant abnormalities or adverse drug reactions; also recorded: No clinically relevant abnormalities
[7]
  lung deposition: more than 50%
[2]
  oral bioavailability: < 1%
[3]
  systemic accumulation: does not lead to systemic accumulation
  time serum concentration detectable/observed after inhalation: about 3 h
[3]; parent ciclesonide, Treatment A and C (160 μg), LLOQ 0.01 μg/L
  time up to which serum concentrations were detectable: up to 3 h
[3]; parent ciclesonide, Treatment B (80 μg with spacer), LLOQ 0.01 μg/L
  time up to which serum concentrations were measurable: up to 1.5 h
[4]
  bound to plasma protein: About 99%
Pulmonary function tests; between screening, Day 7 of each treatment period, and study end
  change in lung function: did not change to any relevant extent
Pulmonary function tests; mean ± SD, screening value 1.81 ± 0.44
  FEV1 at study end: 1.76 ± 0.42 L
